Measured values from ChEMBL document CHEMBL4411263, “Isolation of Tryptanthrin and Reassessment of Evidence for Its Isobaric Isostere Wrightiadione in Plants of the Wrightia Genus” (J Nat Prod, 2019).
Converted amounts (≈) assume the structure as drawn.

Assays:
Vero = experiment: Cytotoxicity against African green monkey Vero cells by CellTiter 96 aqueous nonradioactive cell proliferation assay; type: cell-based; settings: Chlorocebus sabaeus
[1] = tested on: Mycobacterium tuberculosis; experiment: Antitubercular activity against Mycobacterium tuberculosis H37Rv ATCC 27294 incubated for 1 week by MABA; type: functional; settings: H37Rv ATCC 27294, 168 h
[2] = tested on: Mycobacterium tuberculosis; experiment: Antitubercular activity against Mycobacterium tuberculosis H37Rv; type: functional

SMILES | IC50 (Vero) | MIC90 [1] | MIC [2]
CO[C@H]1/C=C/O[C@@]2(C)Oc3c(C)c(O)c4c(O)c(c(/C=N/N5CCN(C)CC5)c(O)c4c3C2=O)NC(=O)/C(C)=C\C=C\[C@H](C)[C@H](O)[C@@H](C)[C@@H](O)[C@@H](C)[C@H](OC(C)=O)[C@@H]1C [RIFAMPIN] | 97.4 µg/mL (≈ 118 µM) | 0.05 µg/mL (≈ 0.0608 µM) | 
O=C1c2ccccc2-n2c1nc1ccccc1c2=O [TRYPTANTHRIN] | > 100 µg/mL | 7.59 µg/mL (≈ 30.6 µM) | 1 µg/mL (≈ 4.03 µM)
